# Laboratory results taken from the supplement of paper PMC7108870.
# Experiments:
# HEK293sieSTAT3(Y640F) [1] = assay: drug sensitivity score (DSS), cytotoxicity CellTox Green (DSS (dimensionless)); higher = more cytotoxic; extreme values may be limits of the assay; conditions: 72 h; STAT3 variant: Y640F (constitutively active)
# In short: (§1)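 Compounds were acoustically pre-plated in 384-well plates at 5 concentrations spaced by 10-fold dilutions, and HEK293 cells overexpressing wild-type or mutant STAT3 and carrying a STAT3-dependent luciferase reporter were added at 100,000 cells/ml in 20 μl. After 72 hours at 37°C and 5% CO2, the plates were read on a PHERAstar FS for CellTox Green fluorescence (485/520 nm) and then CellTiter-Glo luminescence. A drug sensitivity score derived from dose-response curve area was calculated in Breeze from values normalised to negative and positive control wells.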
# HEK293sieSTAT3(wt) [2] = assay: as above; conditions: 72 h; STAT3 variant: wild type
# In short: as §1
# HEK293sieSTAT3(Y640F) [3] = assay: drug sensitivity score (DSS), viability CellTiter-Glo (DSS (dimensionless)); higher = more growth inhibition; extreme values may be limits of the assay; conditions: 72 h; STAT3 variant: Y640F (constitutively active)
# In short: as §1
# HEK293sieSTAT3(wt) [4] = assay: as above; conditions: 72 h; STAT3 variant: wild type
# In short: as §1
SMILES,drug sensitivity score (HEK293sieSTAT3(Y640F) [1]),drug sensitivity score (HEK293sieSTAT3(wt) [2]),drug sensitivity score (HEK293sieSTAT3(Y640F) [3]),drug sensitivity score (HEK293sieSTAT3(wt) [4])
N#Cc1c(Oc2ccc(F)c(NC(=O)Cc3cccc(C(F)(F)F)c3)c2)ccc2nc(NC(=O)C3CC3)sc12 [TAK-632] (top concentration tested 10000 nM),0,0,11.1,8.51
Cn1cc(CNCC2CCN(c3ncc(C(=O)NO)cn3)CC2)c2ccccc21 [Quisinostat] (top concentration tested 1000 nM),6.14,7.75,16.3,17.9
Cn1cnc2c(F)c(Nc3ccc(Br)cc3F)c(C(=O)NOCCO)cc21 [Binimetinib] (top concentration tested 1000 nM),0,0,1.87,0.52
CN(C)C(=N)NC(=N)N [Metformin] (top concentration tested 100000 nM),0,2.32,0.22,2.41
CC(=O)O[C@H]1C(=O)[C@@]2(C)[C@H]([C@H](OC(=O)c3ccccc3)[C@]3(O)C[C@H](OC(=O)[C@H](O)[C@@H](NC(=O)c4ccccc4)c4ccccc4)C(C)=C1C3(C)C)[C@]1(OC(C)=O)CO[C@@H]1C[C@@H]2O [Paclitaxel] (top concentration tested 1000 nM),0.91,16.8,16.4,23.2
C#Cc1cccc(Nc2ncnc3cc(OCCOC)c(OCCOC)cc23)c1 [Erlotinib] (top concentration tested 10000 nM),0,0,3.21,2.99
O=C(Nc1cccc(Nc2ncc(Br)c(NCCc3cnc[nH]3)n2)c1)N1CCCC1 [BX-912] (top concentration tested 10000 nM),0,0,5.58,6.67
CNC(=O)CN1CCC(Oc2cc3c(Nc4cccc(Cl)c4F)ncnc3cc2OC)CC1 [Sapitinib] (top concentration tested 1000 nM),0,0,1.89,0
O=C(Nc1cccc(C(F)(F)F)c1)Nc1cc(S(=O)(=O)NC2CC2)ccc1-c1ccsc1 [AGI-6780] (top concentration tested 10000 nM),0,1.62,1.05,2.88
Cc1cn(-c2cc(NC(=O)c3ccc(C)c(Nc4nccc(-c5cccnc5)n4)c3)cc(C(F)(F)F)c2)cn1 [Nilotinib] (top concentration tested 10000 nM),0.16,0,3.13,3.74
CNC(=O)c1ccccc1Sc1ccc2c(/C=C/c3ccccn3)n[nH]c2c1 [Axitinib] (top concentration tested 10000 nM),4.38,7.83,5.84,8.07
Oc1ncc(N(CCCl)CCCl)c(O)n1 [Uramustine] (top concentration tested 10000 nM),0,0,0.79,0.26
CCOc1cc2ncc(C#N)c(Nc3ccc(F)c(Cl)c3)c2cc1NC(=O)/C=C/CN(C)C [Pelitinib] (top concentration tested 2500 nM),1.79,3.88,6.05,9.21
Cc1cc(C)c(CNC(=O)c2cc(-c3ccc(CN4CCOCC4)cc3)cc3c2cnn3C2CCCC2)c(=O)[nH]1 [EPZ-5687] (top concentration tested 10000 nM),0,0,0,0
CC[C@]1(O)C[C@H]2CN(CCc3c([nH]c4ccccc34)[C@@](C(=O)OC)(c3cc4c(cc3OC)N(C=O)[C@H]3[C@@](O)(C(=O)OC)[C@H](OC(C)=O)[C@]5(CC)C=CCN6CC[C@]43[C@@H]65)C2)C1 [Vincristine] (top concentration tested 1000 nM),6.72,16.2,21.2,23.6
CS(=O)(=O)c1ccc(C(=O)Nc2ccc(Cl)c(-c3ccccn3)c2)c(Cl)c1 [Vismodegib] (top concentration tested 10000 nM),0,0.14,0.91,0.09
COc1cccc2c1C(=O)c1c(O)c3c(c(O)c1C2=O)C[C@@](O)(C(C)=O)C[C@@H]3O[C@H]1C[C@H](N)[C@H](O)[C@H](C)O1 [Daunorubicin] (top concentration tested 1000 nM),0,0,21.9,24
